The record followed here is PubChem BioAssay AID1996.

Structures are written as SMILES. Converted amounts (≈) assume the structure as drawn.

The conditions of this series: buffer; pH 7.4; 200.0 µM.
As for `CCc1cccc(C)c1NC(=O)CN1C(=O)NC(C)(CCC(C)C)C1=O` (configuration not stated), the solubility (kinetic) (as a rule, the concentration staying in solution when a stock, usually in DMSO, is diluted into the medium) was greater than 53.9 µg/mL. The value for `CC(C)c1nc2oc3c(N(C)CCO)ncnc3c2c2c1CCC2` was 0.9 µg/mL (≈ 2.76 µM); that for `Cc1cccc(NC(=O)c2ccc3[nH]c(=O)c(=O)[nH]c3c2)n1` was 17.7 µg/mL (≈ 59.7 µM). In the case of `O=C1NC2=C(C(=O)CCC2)C(c2ccccc2[N+](=O)[O-])N1` (configuration not stated), the solubility (kinetic) is greater than 43.1 µg/mL. The value for `CC(NC(=O)C(=O)NCCc1c[nH]c2ccccc12)c1ccccc1` (configuration not stated) was less than 0.2 µg/mL; that for `CCCCn1c(O)c(C(C)=NCc2ccco2)c(=O)[nH]c1=O` was 9.1 µg/mL (≈ 29.8 µM); that for `O=S(=O)(c1ccccc1)N(CC(O)CN1CCCC1)c1ccccc1` (configuration not stated) was 50 µg/mL (≈ 139 µM).

`CCC1CN(C(=O)NCc2ccc(C)cc2)c2ccccc2O1` (configuration not stated) registered a solubility (kinetic) of 20.8 µg/mL (≈ 67 µM). The value for `CCCn1c(C(O)c2cc(OC)c(OC)c(OC)c2)nc2ccccc21` (configuration not stated) was 49.3 µg/mL (≈ 138 µM); that for `O=C(c1cccs1)N1CCN(c2ccc([N+](=O)[O-])cc2F)CC1` was 4.7 µg/mL (≈ 14 µM); that for `Brc1cccc(C2Nc3cccc4cccc(c34)N2)c1` was less than 0.3 µg/mL. For `COc1ccc(NS(=O)(=O)c2c(C)cc(C)cc2C)cn1` the value was 5.3 µg/mL (≈ 17.3 µM).

As for `CCC(CC)C(=O)c1c[nH]c(C(=O)NCc2ccc(F)cc2)c1`, the solubility (kinetic) was determined as 1 µg/mL (≈ 3.16 µM). For the compound `Clc1ncc(CN2CCN(c3ccccc3)CC2)s1`, the kinetic solubility was determined as 40.9 µg/mL (≈ 139 µM).

For the compound `CS(=O)(=O)c1ccc(Cl)c(NC(=O)CNC(=O)c2ccc3c(c2)OCO3)c1`, the solubility (kinetic) is greater than 61.6 µg/mL.

The compound `CC1C(=O)N2CCCc3cc(NC(=O)C(=O)NCc4cccnc4)cc1c32` (configuration not stated) had a solubility (kinetic) greater than 54.7 µg/mL. Turning to `O=C(Nc1ccccn1)c1cc(-c2cccc(Cl)c2)nc2ccccc12`, the kinetic solubility was less than 0.3 µg/mL. The compound `CC(C)CC(=O)N1CCN(Cc2cccc(Cl)c2)CC1` registered a kinetic solubility of 24.8 µg/mL (≈ 84.1 µM). `O=C(COc1ccccc1[N+](=O)[O-])Nc1cccnc1` yielded a solubility (kinetic) of 17.3 µg/mL (≈ 63.3 µM). The value for `OCc1nc2ccc(Cl)cc2[nH]1` was greater than 27.4 µg/mL.

On to `O=C(CN1C(=O)NC2(CCCCC2)C1=O)Nc1ccc(F)cc1`, for which the kinetic solubility is greater than 47.9 µg/mL.

The compound `CCN(CC)S(=O)(=O)c1ccc(NC(=O)c2ccc(N3CCCC3=O)cc2)cc1` returned a solubility (kinetic) of 5 µg/mL (≈ 12 µM).

On to `Br.Cc1ccnc(Nc2nc(-c3sc(C)nc3C)cs2)c1`, for which the solubility (kinetic) is 3.6 µg/mL. For `O=C(CN1CCN(S(=O)(=O)c2ccccc2F)CC1)N1CCc2ccccc2C1` the value was 12.8 µg/mL (≈ 30.7 µM). For `Fc1cc2[nH]c(=S)[nH]c2cc1Cl` the value was 26.5 µg/mL (≈ 131 µM); for `Cc1nc2c(Cl)cccc2c2c1CC(CBr)O2` (configuration not stated), 12.5 µg/mL (≈ 40 µM). For `Cc1ccccc1Nc1c([N+](=O)[O-])ccc2nonc12`, the solubility (kinetic) was 0.2 µg/mL (≈ 0.74 µM). In the case of `OCCNC(=S)c1ccccc1`, the solubility (kinetic) came out at 25.7 µg/mL (≈ 142 µM).

As to `O=C(c1cc(-c2ccncc2)nc2ccccc12)N1CCN(c2ncccn2)CC1`, the solubility (kinetic) turned out to be 55.4 µg/mL (≈ 140 µM). This solubility kinetic lies about 2.2-fold higher than the previous one. The value for `O=C(Cn1cc([N+](=O)[O-])ccc1=O)NC1CCCCC1` was greater than 41.9 µg/mL; that for `O=C(Nc1cccc([N+](=O)[O-])c1)C1C2/C=C\CCCCC21` (configuration not stated) was less than 0.3 µg/mL; that for `CCN1CCN(c2cc(=O)n3ccccc3n2)CC1` was 32 µg/mL (≈ 124 µM). Turning to `Fc1cccc(CNc2ncnc3cc(Cl)ccc23)c1F`, the kinetic solubility stood at 3.8 µg/mL (≈ 12.4 µM). This solubility kinetic is about 8.4-fold lower than that of the compound before. As for `CCN(C(=S)NCCOC)c1cccc2ccccc12`, the kinetic solubility worked out at 12.9 µg/mL (≈ 44.7 µM). For `CC(=O)Nc1ccc(C(=O)OCC(=O)N2CC3(C)CC2CC(C)(C)C3)cc1` (configuration not stated) the value was 15.6 µg/mL (≈ 41.9 µM).

`Cc1cccc(C(=O)OC(C)CN2CCOCC2)c1.Cl` (configuration not stated): the solubility (kinetic) turned out to be 38.9 µg/mL. The value for `Oc1ccc(/C=C/c2ccc3cccc(O)c3n2)cc1Br` was 1.1 µg/mL (≈ 3.21 µM); that for `COc1ccc(CCC(C)N(C)Cc2ccccc2)cc1` (configuration not stated) was 34.9 µg/mL (≈ 123 µM); that for `O=C(NN1C(=O)C2C3C=CC(C3)C2C1=O)C(O)c1ccccc1` (configuration not stated) was greater than 46.8 µg/mL. Turning to `Cc1cccc(C)c1NC(=O)CN.Cl`, the solubility (kinetic) was greater than 32.2 µg/mL. The value for `COc1ccccc1CNC(=O)COC(=O)c1ccc(Cl)nc1` was greater than 50.2 µg/mL.

In turn, `Cc1cccc(C)c1NC(=S)NC(C)(C)CO` had a kinetic solubility greater than 37.9 µg/mL. The value for `O=C(O)CSc1nc2ccccc2nc1Cc1ccccc1F` was 47.7 µg/mL (≈ 145 µM); that for `O=C(COC(=O)c1cc(S(=O)(=O)N2CCOCC2)ccc1Cl)NCc1ccccc1` was greater than 67.9 µg/mL; that for `Cc1cccc(NC(=O)C(c2ccccc2Cl)N2CCOCC2)c1` (configuration not stated) was 48.9 µg/mL (≈ 142 µM). For `O=C(COC(=O)Cc1ccc(S(=O)(=O)N2CCOCC2)s1)Nc1ccccc1` the value was 57 µg/mL (≈ 134 µM); for `O=C(Nc1ccncc1)Nc1cccc(C(F)(F)F)c1`, 5.4 µg/mL (≈ 19.2 µM). The value for `Cc1oc(-c2ccccc2)cc1C(=O)NC1CCN(Cc2ccccc2)CC1` was less than 0.4 µg/mL; that for `CCOC(=O)c1ccc(NCCOC)c([N+](=O)[O-])c1` was 33.2 µg/mL (≈ 124 µM).

In turn, `CCC(C)N1CCN(S(=O)(=O)c2ccc(NC(C)=O)cc2)CC1` (configuration not stated) showed a solubility (kinetic) of 46.7 µg/mL (≈ 138 µM). This solubility kinetic and that of the compound before are within 1.5-fold of each other. For `Cn1c(NC(=O)c2ccc(F)cc2)nc2ccccc21` the value was 4.8 µg/mL (≈ 17.8 µM); for `COc1cccc2cc(/C(=N/O)c3ccc(Br)cc3)oc12`, less than 0.7 µg/mL.
